According to patent US20020137173A1, “Membrane-associated sphingomyelinase derived from bovine brain, isolation method therefor and anti-sphingomyelinase monoclonal anitibody” (priority 2001, published 2002):
Entries after “also recorded” stand apart in the source; their conditions may differ. Where two headings read alike, the source gives them in different places.

How the values were obtained:
[1] = tested on: partially purified N-mSMase from rat brain; conditions: Liu et al., J. Biol. Chem. 273, 34472-34479; cited from earlier work
N-mSMase ε = experiment: N-mSMase activity assay: hydrolysis of [N-methyl-14C]sphingomyelin with added cations, reducing agents or surfactants; format: biochemical, bovine; conditions: for influence of reducing agents on N-mSMase ε activity: 0.5-10 mM; for influence of glutathione-like agents on N-mSMase ε activity: 1, 3, 5 or 10 mM
Protocol: (§1) After being dried with a nitrogen stream, [N-methyl-^14C]sphingomyelin (choline residue labeled with ^14C) was suspended in ethanol. 10 μl of a sample was mixed with 100 μl of a reaction solution (10 mM MgSO4, 50 μM [N-methyl-^14C]sphingomyelin (c.a. 60,000 cpm), 2 mM sodium deoxycholate, 100 mM Tris-HCl (pH 7.0)) and incubated at 37° C. for 30 min. Addition of 320 μl of a mixture of chloroform/methanol (1:1 volume ratio) and 30 μl of 2N hydrochloride stopped the reaction. After vortexing and centrifuging the resulting mixture at 10,000× g, 200 μl of the aqueous layer was mixed with 2.5 ml of a scintillation cocktail, such as that manufactured by Packard Instrument Co., U.S.A., identified as “Insta gel-XF”, followed by measuring the radioactivity with the aid of a Packard Tri-carb liquid β-scintillation counter.
In order to examine the dependency of N-mSMase ε activity on Mg^2+, Fraction B obtained in Step 6 of Example 1 was desalted by being applied to a PD-10 column (Sephadex G-25, Pharmacia Biotechnology Co., Sweden) For use, the column was equilibrated twice with distilled water, in advance. The desalted protein fraction (corresponding to protein 10 ng) was measured for N-mSMase ε activity in the presence of […] of MgCl2 in the manner described in Experimental Example 1.
An examination was made of the influence of other cations, such as Ca^2+, Fe^3+, Fe^2+, Zn^2+, Cu^2+ and […] on the activity of N-mSMase ε. To a solution containing the desalted protein fraction (corresponding to protein 10 ng) obtained in C and 5 mM MgCl2, CaCl2, FeCl3, FeCl2, ZnCl2 or CuCl2 was added to yield a final concentration of 0.01, 0.02, 0.05, 0.1, 0.25 or 0.5 mM, followed by the measurement of N-mSMase ε activity in accordance with the procedure of Experimental Example 1.
After the addition of 10 μl of [N-methyl-^14C]sphingomyelin, the N-mSMase activity was measured according to the procedure of Experimental Example 1. For comparison, a Tris-HCl buffer containing no reducing agents was used as a control. The N-mSMase ε activity influenced by the reducing agents was expressed as a percentage relative to the control.
After being treated with 1, 3, 5 or 10 mM of GSSG, cystein, cystein-glycine or γ-glutaric acid-cystein, the activity of N-mSMase ε was measured in the same manner.
Sodium deoxycholate and Triton X-100 were selected as surfactant5 to be tested. The protein fraction obtained in C (corresponding to 10 ng of protein) was measured for N-mSMase ε activity in reaction solutions containing 0.5, 1, 2 and 5 mM of sodium deoxycholate, respectively, in accordance with the procedure of Experimental Example 1. In the case of Triton X-100, it was prepared at concentrations of 0.05, 0.01, 0.5 and 0.1%.

[2] = Kinetic analysis (Lineweaver-Burk), substrate specificity and optimum pH of the purified enzyme; format: biochemical, bovine; conditions: 0.4, 1.0 and 2.0 mM sodium deoxycholate
Protocol: as §1
The N-mSMase ε prepared in Step 6 of Example 1 was subjected to Lineweaver-Burk analysis. In this regard, enzyme N-mSMase ε was used at amounts of 10 ng or less with the substrate sphingomyelin varying, in concentration, from 6.25 to 100 μM.
Separately, the same Lineweaver-Burk analysis was carried out, but in the presence of 0.4, 1.0 and 2.0 mM sodium deoxycholate. […]

[3] = desalted protein fraction (10 ng), 5 mM MgCl2, chloride salts 0.01-0.5 mM, read-out: IC50, inhibition of enzyme activity (hydrolysis of sphingomyelin) by cations

Compound: O[C@H](CS)[C@H](O)CS (racemic) [DTT, dithiothreitol]
- effect on the activity of partially purified rat brain N-mSMase [1]: promoted
- influence of reducing agents on N-mSMase ε activity (N-mSMase ε; preincubation 37° C. 10 min): not inhibited
- influence of reducing agents on N-mSMase ε activity (N-mSMase ε; preincubation 37° C. 10 min, listed as dithiothreitol): neither dithiothreitol nor 2-mercaptoethanol has any influence

Compound: OCCS [2-mercaptoethanol]
- influence of reducing agents on N-mSMase ε activity (N-mSMase ε; preincubation 37° C. 10 min): not inhibited; also recorded: neither dithiothreitol nor 2-mercaptoethanol has any influence

Compound: [Ca+2].[Cl-].[Cl-] [Ca^2+, CaCl2]
- influence on the activity of N-mSMase ε (N-mSMase ε; concentration of 0.5 mM or less, 5 mM MgCl2): no influence

Compound: [Cl][Cu][Cl] [Cu^2+, CuCl2]
- IC50 (N-mSMase ε; [3]): 28 µM

Compound: [Cl-].[Cl-].[Mg+2] [Mg^2+, MgCl2]
- dependency of N-mSMase ε activity on Mg2+ (N-mSMase ε; 1, 5, 10 and 25 mM MgCl2, desalted fraction B): Mg^2+-concentration dependent

Compound: [Cl-].[Cl-].[Zn+2] [Zn^2+, ZnCl2]
- IC50 (N-mSMase ε; [3]): 32 µM

Compound: N[C@@H](CS)C(=O)O [cystein]
- influence of glutathione-like agents on N-mSMase ε activity (N-mSMase ε): inhibited; also recorded: reduction in the activity

Compound: N[C@@H](CCC(=O)N[C@@H](CS)C(=O)NCC(=O)O)C(=O)O [glutathione]
- activity of N-mSMase ε at 10 mM glutathione (N-mSMase ε; glutathione 10 mM): fully inhibited; also recorded: completely inhibited
- activity of N-mSMase ε with increasing glutathione concentration up to 3 mM (N-mSMase ε; glutathione up to 3 mM): increases
- IC50 (N-mSMase ε; read-out: IC50, inhibition of sphingomyelinase activity by glutathione, glutathione above 3 mM, preincubation 37° C. 10 min, Tris-HCl pH 7.5): 8000 µM

Compound: N[C@@H](CCC(=O)N[C@@H](CS)C(=O)O)C(=O)O [γ-glutaric acid-cystein]
- influence of glutathione-like agents on N-mSMase ε activity (N-mSMase ε): inhibited; also recorded: reduction in the activity

Compound: oxidized glutathione [GSSG]
- influence of glutathione-like agents on N-mSMase ε activity (N-mSMase ε): inhibited; also recorded: reduction in the activity

Compound: phosphatidylserine
- effect on the activity of partially purified rat brain N-mSMase [1]: promoted

Compound: sodium deoxycholate
- effect on the Km value of N-mSMase ε [2]: could not change
